Patent US20070060558A1 (PALUMED S.A., priority 2004, published 2007)
Values after ≈ are worked out from the molar mass of the structure shown. Read-outs that look alike come from different tables or passages of the source. Starred links: 1 amine or outer side, 2 acyl side, 3 side chain; linkers in the order of their positions; H or OH if unused. Positions of bridges follow the written chain, without caps; N, C: chain ends. Non-standard residues stand in square brackets, D forms with d. Residues, ends and D or L forms follow the SMILES beside them. ξ: configuration not given here. *: point of attachment. X1 = O=C1C[C@@H](C(=O)[*:2])N([*:1])C[C@H]1CSCCNc1ccnc2cc(Cl)ccc12; NMePhe(4-NMe2) = CN[C@@H](Cc1ccc(N(C)C)cc1)C(=O)O; Picolinoyl(3-OH) = O=C(c1ncccc1O)*; ξPhg = NC(C(=O)O)c1ccccc1; dAbu = CC[C@@H](N)C(=O)O

Assays:
[1] = test system: Staphylococcus aureus MSSA CIP 4.83; assay: Antibacterial activity (MIC/MBC); type: cell-based; details: Staphylococcus aureus, S. aureus MSSA CIP 4.83; for MBC: read-out: MBC; for MIC: read-out: MIC
[2] = test system: S. pneumoniae PSSP CIP 6.92; assay: Antibacterial activity (MIC/MBC); type: cell-based; details: Streptococcus pneumoniae, CIP6
[3] = test system: S. pneumoniae PRSP CIP 104471; assay: Antibacterial activity (MIC/MBC); type: cell-based, Streptococcus pneumoniae; details: Streptococcus pneumoniae; for MIC: read-out: MIC
[4] = test system: S. pneumoniae PRSP clinical isolate; assay: Antibacterial activity (MIC/MBC); type: cell-based, Streptococcus pneumoniae; details: Streptococcus pneumoniae; for MIC: PRSP, read-out: MIC
S. pyogenes CIP 56.41T = assay: Antibacterial activity (MIC/MBC); type: cell-based, Streptococcus pyogenes; details: Streptococcus pyogenes, CIP56, S. pyogenes CIP 56.41T; for MIC: read-out: MIC
[5] = test system: E. faecalis VRE CIP 104676; assay: Antibacterial activity (MIC/MBC); type: cell-based, Enterococcus faecalis; details: Enterococcus faecalis, E. faecalis VRE CIP 104676; for MIC: read-out: MIC
H. influenzae CIP 102514 = assay: Antibacterial activity (MIC/MBC); type: cell-based, Haemophilus influenzae; details: Haemophilus influenzae, CIP102514
M. catarrhalis CIP73.21T = assay: Antibacterial activity (MIC/MBC); type: cell-based; details: Moraxella catarrhalis
[6] = test system: Staphylococcus aureus MSSA 53.154; assay: Murine experimental septicaemia, in vivo efficacy; design: species or system mice; details: sc, mice, subcutaneously at 1 and 6 h post infection, survival on day 9, hybrid molecules formulated in water as their sodium salt, read-out: ED50
Experimental: Experimental septicaemia was induced in mice as follows. Briefly, male Swiss OF1 mice (IFFA CREDO-Charles River) weighing 18 to 20 grams were infected intraperitoneally with 0.5 mL of a bacterial suspension containing 8.5×10^7 cfu of Staphylococcus aureus MSSA 53.154 (Institut Pasteur). The hybrid molecules were administered subcutaneously at 1 and 6 h post infection. Control and treatment groups at each dose were composed of seven mice. All the infected but untreated control mice died within 9 days. The 50% effective dose (ED50) values were calculated by a computerized program (GraphPad) from the survival rates on day 9 after infection.

[7] = test system: S. pneumoniae PSSP CQI 201; assay: Antibacterial activity (MIC); type: cell-based, Streptococcus pneumoniae; details: Streptococcus pneumoniae; S. pneumoniae PSSP CQI 201; read-out: MIC
C. difficile CIP 104282 = assay: Antibacterial activity (MIC); type: cell-based, Clostridium difficile; details: Clostridioides difficile, CIP104282; C. difficile CIP 104282; read-out: MIC
[8] = test system: S. aureus MRSA clinical isolate; assay: Antibacterial activity (MIC); type: cell-based, Staphylococcus aureus; details: Staphylococcus aureus; S. aureus MRSA clinical isolate; read-out: MIC
S. pneumoniae PRSP = assay: Antibacterial activity (MIC), Table VII; type: cell-based; details: Streptococcus pneumoniae; S. pneumoniae PRSP (Table VII); read-out: MIC
E. coli CIP 54127 = assay: Antibacterial activity (MIC); type: cell-based; details: Escherichia coli, CIP54127; E. coli CIP 54127; read-out: MIC
P. aeruginosa CIP 103467 = assay: Antibacterial activity (MIC); type: cell-based; details: Pseudomonas aeruginosa, CIP103467; P. aeruginosa CIP 103467; read-out: MIC
[9] = test system: B. thuringiensis CIP 104676; assay: Antibacterial activity (MIC); type: cell-based; details: Bacillus thuringiensis, CIP104676; B. thuringiensis CIP 104676; read-out: MIC

| Compound | MIC [7] [µg/mL] | MBC [1] [µg/mL] | MIC [1] [µg/mL] | MBC [2] [µg/mL] | MIC [2] [µg/mL] | MBC [3] [µg/mL] | MIC [3] [µg/mL] | MBC [4] [µg/mL] | MIC [4] [µg/mL] | MBC (S. pyogenes CIP 56.41T) [µg/mL] | MIC (S. pyogenes CIP 56.41T) [µg/mL] | MBC [5] [µg/mL] | MIC [5] [µg/mL] | MBC (H. influenzae CIP 102514) [µg/mL] | MIC (H. influenzae CIP 102514) [µg/mL] | MBC (M. catarrhalis CIP73.21T) [µg/mL] | MIC (M. catarrhalis CIP73.21T) [µg/mL] | ED50 [6] [mg/kg] | further results |
| --- | --- | --- | --- | --- | --- | --- | --- | --- | --- | --- | --- | --- | --- | --- | --- | --- | --- | --- | --- |
| CC(=O)OCC1=C(C(=O)O)N2C(=O)[C@@H](NC(=O)CNc3cc(C)nc4ccccc34)[C@H]2SC1 [PA 1101, (6R,7R-3-Acetoxymethyl-7-[2-2-methylquinolin-4-ylamino)acetylamino]-8-oxo-5-thia-1-aza-bicyclo[4.2.0]oct-2-ene-2-carboxylic acid] |  | 25 (≈ 53.1 µM) | 0.2 (≈ 0.425 µM) | 0.006 (≈ 0.0128 µM) | 0.006 (≈ 0.0128 µM) | 0.78 (≈ 1.66 µM) | 0.2 (≈ 0.425 µM) | 0.39 (≈ 0.829 µM) | 0.2 (≈ 0.425 µM) | 0.0015 (≈ 0.00319 µM) | 0.0015 (≈ 0.00319 µM) | 25 (≈ 53.1 µM) | 25 (≈ 53.1 µM) | 12.5 (≈ 26.6 µM) | 1.56 (≈ 3.32 µM) | 0.78 (≈ 1.66 µM) | 0.78 (≈ 1.66 µM) | 0.13 |  |
| Cl.O=C(O)c1cn(C2CC2)c2cc(N3CCN(c4ccnc5cc(C(F)(F)F)ccc45)CC3)c(F)cc2c1=O [PA 1284, 1-Cyclopropopyl-6-fluoro-4-oxo-7-[4-(7-trifluoromethylquinolin-4-yl)-piperazin-1-yl]-1,4-dihydroquinoline-3-carboxylic acid hydrochloride salt] |  |  | 0.156 |  |  |  |  |  |  |  |  |  | 0.625 |  |  |  |  |  | MIC (S. pneumoniae PRSP): 0.039 µg/mL; MIC (H. influenzae CIP 102514; H. influenzae CIP 102514, read-out: MIC): 0.625 µg/mL; MIC (E. coli CIP 54127): 1.25 µg/mL; MIC (P. aeruginosa CIP 103467): > 5 µg/mL; MIC [9]: 0.625 µg/mL |
| CC(=O)OCC1=C(C(=O)O)N2C(=O)[C@@H](NC(=O)CNc3ccnc4cc(C(F)(F)F)ccc34)[C@H]2SC1 [PA 1100, (6R,7R)-3-Acetoxymethyl-7-[2-(7-trifluoromethylquinolin-4-ylamino)-acetylamino]-8-oxo-5-thia-1-aza-bicyclo[4.2.0]oct-2-ene-2-carboxylic acid] |  | 25 (≈ 47.7 µM) | 0.2 (≈ 0.381 µM) | 0.006 (≈ 0.0114 µM) | 0.006 (≈ 0.0114 µM) | 0.78 (≈ 1.49 µM) | 0.2 (≈ 0.381 µM) | 0.39 (≈ 0.744 µM) | 0.39 (≈ 0.744 µM) | 0.003 (≈ 0.00572 µM) | 0.003 (≈ 0.00572 µM) | 25 (≈ 47.7 µM) | 12.5 (≈ 23.8 µM) | 25 (≈ 47.7 µM) | 0.78 (≈ 1.49 µM) | 1.56 (≈ 2.97 µM) | 0.78 (≈ 1.49 µM) | 0.16 |  |

More lines, main results first:

| MIC [7] [µg/mL] | Compound | MBC [1] [µg/mL] | MIC [1] [µg/mL] | MBC [2] [µg/mL] | MIC [2] [µg/mL] | MBC [3] [µg/mL] | MIC [3] [µg/mL] | MBC [4] [µg/mL] | MIC [4] [µg/mL] | MBC (S. pyogenes CIP 56.41T) [µg/mL] | MIC (S. pyogenes CIP 56.41T) [µg/mL] | MBC [5] [µg/mL] | MIC [5] [µg/mL] | MBC (H. influenzae CIP 102514) [µg/mL] | MIC (H. influenzae CIP 102514) [µg/mL] | MBC (M. catarrhalis CIP73.21T) [µg/mL] | MIC (M. catarrhalis CIP73.21T) [µg/mL] | ED50 [6] [mg/kg] | further results |
| --- | --- | --- | --- | --- | --- | --- | --- | --- | --- | --- | --- | --- | --- | --- | --- | --- | --- | --- | --- |
| 1.25 (≈ 2.37 µM) | O=C(CCNc1ccnc2cc(Cl)ccc12)NC[C@H]1CN(c2ccc(N3CCOCC3)c(F)c2)C(=O)O1 [PA 1185, (5S)-3-(7-Chloroquinolin-4-ylamino)-N-[3-(3-fluoro-4-morpholin-4-yl-phenyl)-2-oxo-oxazolidin-5-ylmethyl]-propionamide] |  |  |  |  |  |  |  |  |  |  |  |  |  |  |  |  |  | MIC (C. difficile CIP 104282): 0.16 µg/mL (≈ 0.303 µM) |
| 0.31 (≈ 0.277 µM) | CC[C@H]1NC(=O)[C@@H](NC(=O)c2ncccc2O)[C@@H](C)OC(=O)C(c2ccccc2)NC(=O)[C@@H]2CC(=O)[C@H](CSCCNc3ccnc4cc(Cl)ccc34)CN2C(=O)[C@H](Cc2ccc(N(C)C)cc2)N(C)C(=O)[C@@H]2CCCN2C1=O (some centres unmarked) [PA 1182, 5δ-{1-[2-(7-Chloroquinolin-4-ylamino)-ethylamino]-methylsulfanyl}pristinamycin IA] ({Picolinoyl(3-OH)}-T[dAbu]P[NMePhe(4-NMe2)][X1][ξPhg]; ester 1-C) |  | 0.31 (≈ 0.277 µM) |  |  |  |  |  |  |  | 0.32 (≈ 0.286 µM) |  |  |  |  |  |  |  | MIC [8]: 1.25 µg/mL (≈ 1.12 µM) |
